{"source": "paper PMC10017709", "about": "“Structural basis of selective cannabinoid CB2 receptor activation” (Nature Communications, 2023)", "test_system": "cisplatin-induced nephropathy", "assay": "Cisplatin-induced nephropathy in wild type mice", "assay_type": "in vivo, C57BL/6J mice", "settings": "for BUN / CREA: 72 h; for BUN / CREA / HNE (HNE adducts, ELISA) / NT (protein nitration, ELISA) / IL1b expression (real-time PCR) / TNFa expression (real-time PCR): mean, n = 6; for HNE (HNE adducts, ELISA) / NT (protein nitration, ELISA) / IL1b expression (real-time PCR) / TNFa expression (real-time PCR): kidney; for HNE (HNE adducts, ELISA) / NT (protein nitration, ELISA): vehicle mean 1.0; for IL1b expression (real-time PCR) / TNFa expression (real-time PCR): vehicle mean 1.00", "protocol": "Ten to twelve-week-old male/female C57BL/6J mice were obtained from The Jackson Laboratory (Bar Harbor, ME, USA). CB2R knockout mice (CB2R^−/−) and their wild-type littermates (CB2R^+/+) were developed as described previously and had been backcrossed to a C57BL/6J background. All animals were kept in a temperature-controlled environment (20–22 °C) with a 12 h light–dark cycle and were always allowed free access to food and water. All animal experiments reported in this manuscript complied with the National Institutes of Health “Guide for the Care and Use of Laboratory Animals” (NIH publication 86–23 revised 1985) and were approved by the Institutional Animal Care and Use Committee of the National Institute on Alcohol Abuse and Alcoholism (Bethesda, MD).\nThe well-established model of cisplatin-induced nephropathy was used[63]. Mice (CB2R^−/− and CB2R^+/+) were sacrificed 72 h after a single injection of cisplatin (cis-diamine platinum (II) dichloride (Sigma#P4394) 25 mg/kg i.p.; freshly dissolved in physiological saline) by cervical dislocation under deep anesthesia with 5% isoflurane, for collection of blood and tissue samples. LEI-102 was given i.p. or by oral gavage (p.o.) at 0.3, 3.0, and 10 mg/kg every day, starting 1.5 h before the cisplatin exposure. The drug was dissolved in a vehicle of DMSO:Tween 80:saline, 1:1:18. After administration of LEI‐102, mice were killed by cervical dislocation under deep anesthesia with 5% isoflurane, for collection of blood and tissue samples at the time described in the figure. The tetrad assay in mice has previously been described in detail.\nMarkers of kidney dysfunction (BUN and CREA), histopathology (PAS staining), immunostaining or ELISA for 3-nitrotyrosine (3-NT; Cell Biolabs #STA-305) and 4-hydroxynonenal (4-HNE; Cell Biolabs#STA-838), and real-time PCR (Primers from Qiagen, SYBER Green Vita Scientific#MEIF01301, High-Capacity cDNA Reverse Transcription Kit, Thermo Fisher Scientific#4368813) for inflammatory cytokines were performed as previously described. Tubular damage scores were determined based on the percentage of tubules showing epithelial necrosis where 0= normal; 1, <10%; 2, 10–25%; 3, 26–75%; 4, >75%. Tubular necrosis was defined as the loss of the proximal tubular brush border, blebbing of apical membranes, tubular epithelial cell detachment from the basement membrane, or intraluminal aggregation of cells and proteins. The morphometric examination was performed in a blinded manner. Ten fields were scored from each mouse kidneys at 200× magnification, and average scores were determined for each mouse. For final quantification graph, average tubular damage scores of six mice/group were plotted."}
{"smiles": "CC(C)CN1C(=O)CN(Cc2ccc(-c3ccc(F)c(CNC4CCOCC4)n3)cc2)C1=O", "note": "[LEI-102, 1-(4-(5-fluoro-6-(((tetrahydro-2H-pyran-4-yl)amino)methyl)pyridin-2-yl)benzyl)-3-isobutylimidazolidine-2,4-dione]", "values": [{"measurement": "BUN", "setting": "Cis + LEI-102 i.p. 0.3 mg/kg every day", "value": 143.0, "unit": "mg/dL"}, {"measurement": "CREA", "setting": "Cis + LEI-102 i.p. 0.3 mg/kg", "value": 1.6, "unit": "mg/dL"}, {"measurement": "BUN", "setting": "Cis + LEI-102 i.p. 3 mg/kg", "value": 32.8, "unit": "mg/dL"}, {"measurement": "CREA", "setting": "Cis + LEI-102 i.p. 3 mg/kg", "value": 0.7, "unit": "mg/dL"}, {"measurement": "BUN", "setting": "Cis + LEI-102 i.p. 10 mg/kg", "value": 24.8, "unit": "mg/dL"}, {"measurement": "CREA", "setting": "Cis + LEI-102 i.p. 10 mg/kg", "value": 0.6, "unit": "mg/dL"}, {"measurement": "BUN", "setting": "Cis + LEI-102 p.o. 3 mg/kg", "value": 53.5, "unit": "mg/dL"}, {"measurement": "CREA", "setting": "Cis + LEI-102 p.o. 3 mg/kg", "value": 1.0, "unit": "mg/dL"}, {"measurement": "BUN", "setting": "Cis + LEI-102 p.o. 10 mg/kg", "value": 31.8, "unit": "mg/dL"}, {"measurement": "CREA", "setting": "Cis + LEI-102 p.o. 10 mg/kg", "value": 0.53, "unit": "mg/dL"}, {"measurement": "lipid peroxidation and protein nitration in kidney", "setting": "LEI-102 10 mg/kg by i.p. or p.o.", "value": "decreased"}, {"measurement": "functional markers of cisplatin-induced kidney injury (serum creatinine, blood urea nitrogen)", "setting": "LEI-102 p.o. or i.p., 72 h after cisplatin 25 mg/kg i.p.", "value": "dose-dependent attenuation"}, {"measurement": "pro-inflammatory cytokines TNFα and IL1β elevated by cisplatin-induced injury", "setting": "LEI-102 treated mice", "value": "attenuated"}, {"measurement": "HNE (HNE adducts, ELISA)", "setting": "Cis + LEI-102 i.p. 10 mg/kg", "value": 2.7}, {"measurement": "NT (protein nitration, ELISA)", "setting": "Cis + LEI-102 i.p. 10 mg/kg", "value": 2.4}, {"measurement": "IL1b expression (real-time PCR)", "setting": "Cis + LEI-102 i.p. 10 mg/kg", "value": 1.90}, {"measurement": "TNFa expression (real-time PCR)", "setting": "Cis + LEI-102 i.p. 10 mg/kg", "value": 1.59}, {"measurement": "HNE (HNE adducts, ELISA)", "setting": "Cis + LEI-102 p.o. 10 mg/kg", "value": 2.4}, {"measurement": "NT (protein nitration, ELISA)", "setting": "Cis + LEI-102 p.o. 10 mg/kg", "value": 2.8}, {"measurement": "IL1b expression (real-time PCR)", "setting": "Cis + LEI-102 p.o. 10 mg/kg", "value": 2.71}, {"measurement": "TNFa expression (real-time PCR)", "setting": "Cis + LEI-102 p.o. 10 mg/kg", "value": 1.42}]}
